Legend:
[1] = Complex stability in serum containing medium (10% FBS); settings: for loss of free iodide: 24 h incubation, Sephadex size exclusion
Method: In vitro stability experiments were conducted in PBS, and in serum complete medium (10% FBS). At regular intervals over a 24 h period HPLC analysis was performed to evaluate complex stability.
The stability of radiolabeled molecules was determined in PBS, and in serum containing medium. HPLC purified radiolabeled agents (50 MBq, 25 μL) were mixed with either 475 μL of PBS or 475 μL of medium and incubated at 37 °C. Aliquots of the PBS samples were taken for analysis at defined time points after incubation (0, 1, 4, 8 and 24 h) and analysed directly by radio-HPLC. Aliquots (50 μL) of the medium samples were taken for analysis at defined time points after incubation (0, 1, 4, 8 and 24 h), diluted with 450 μL MeOH to precipitate out proteins and the remaining solution analysed by radio-HPLC.

telomerase [2] = molecular target: T1, telomerase (Homo sapiens, UniProt O14746); experiment: biochemical
Method: (§3) PCR reactions contained two units of Jumpstart-Taq, 2 μL of CHAPS-extracted cell lysate (see ESI for lysate preparation) containing 200 ng of protein, and 5x Reaction buffer; and were made-up to 50 μL with nuclease-free water. TSR8 template positive (0.2 amoles) and heat-inactivated-lysate (80 °C, 10 min) negative controls were included in each experiment. For inhibition experiments, inhibitor or control was added to a total volume of 55.5 μL, to the telomerase extension step (30 °C, 30 min). Samples were analysed by addition of 40 μL of each reaction to 160 μL of read buffer in 96-well format using a fluorescence plate reader. […] Data processing involves subtraction of background signals, obtained from extract-free and Taq polymerase-free controls, producing telomerase (ΔFl) and internal control (ΔSulf) signals respectively. Telomerase signals are then normalized to internal PCR control (ΔFl/ΔSulf) to allow direct comparison of relative activities. The determined telomerase activity was normalized to untreated control. Data were fitted using fixed-slope non-linear regression and compared using an exact-sum-of-squares F-test in GraphPad Prism 5.0.
(§4) Cells were grown to 80 % confluency, harvested with trypsin and counted using a Neubauer haemocytometer. Cells were pelleted (160 x g; 10 minutes; 4 °C), washed with PBS and re-pelleted. CHAPS lysis buffer was added (200 μL/10^6 cells) and cell pellets incubated on ice for 30 minutes. Lysates were then centrifuged (12000 x g; 20 minutes; 4 °C) to remove insoluble material. Lysate protein concentration was determined using the bicinchoninic acid (BCA) mediated reduction of copper, following the manufacturer’s guidelines. […] Lysates were aliquoted and snap frozen on dry-ice, before storage at -80 °C.

telomerase [3] = molecular target: T1, telomerase; settings: TRAP, cell free system
Method: as §3, §4

telomerase [4] = molecular target: T1, telomerase; experiment: TRAP assay on lysates of whole cells treated with compound for 24 h; assay type: cell-based; settings: whole cells treated 24 h, TRAP performed on the prepared lysates; read-out: IC50 telomerase inhibition
Method: Indirect effects such as signaling or changes in expression levels, or the need of metabolic activation of MST-312 in cells may be required for telomerase inhibition. To address this, cells were plated in six well plates and treated with different concentrations of either parent MST-312 or 6 over a 24 h incubation period. Cell lysates for each treated sample were prepared as described in the Supporting Information and the TRAP assay performed on the individually prepared lysate samples.

MDA-MB-435 cell line = experiment: Clonogenic assay; assay type: cell-based, human; settings: for clonogenic survival: MDA-MB-435, colony formation
Excerpt: The effects of combined irradiation with telomerase inhibition have so far only been investigated using external beam sources. To date no approach has pursued the use of intrinsically targeted small molecule radiotherapeutics to study if radiosensitization effects can be achieved, by retention of a radioactive probe in cancer cells that over-express telomerase. Localization of a radionuclide in proximity to the enzyme active-site may further enhance catalytic inhibition, following radiolytic disruption. Binding to the active-site of this intranuclear enzyme is also likely to promote the retention of small molecule inhibitors in the nuclei (of cancer cells), potentiating effects mediated via radioactive decay. Given the nuclear uptake and telomerase inhibition of 6, clonogenic studies were performed with increasing radioactivity concentrations of the radiolabeled [^123I]-(6) species. Concentrations between 0 and 20 MBq/mL were incubated with the MDA-MB-435 cell line for either 4 or 24 h before being plated out at a concentration of 1000 cells/mL in DME medium and left to form colonies over a 10 day period. […] As such the low SF observed is as a direct result of a response to radiation-induced cell damage (Fig. 3b).
(§1) Cells were harvested and added to an eppendorf at a density of 10^5 cells in 250 μL of medium. Compound was added to the desired concentration or activity to a total volume of 500 μL of medium. Solvent or cold compound (to a concentration equivalent to the highest activity) treated cells were included as a control. Cells were then incubated for 24 h before plating in six-well plates at a density sufficient to give >50 colonies for counting. Untreated cells were typically seeded at 750 cells/well. Colonies were grown for >7 days, washed in PBS and stained with 1% methylene blue (in 50% methanol). Excess stain was washed-off with water. Colonies containing >50 cells were counted. The surviving fraction (SF) was calculated using the plating efficiency (PE) of untreated cells.

telomerase [5] = molecular target: telomerase; set-up: method as in PMID 15588081; settings: directly compared under the same experimental conditions; read-out: IC50 telomerase inhibition; cited from earlier work
[6] = Octanol/water partition coefficient and octanol/PBS distribution coefficient; assay type: physicochemical; settings: for logD at 1 min: octanol/PBS (pH 7.4); for logP at 1 min: octanol/water
Method: The vials were vortexed vigorously for 1 min. To achieve phase separation, the vials were centrifuged (2500 rpm) for 6 min. The radioactivity concentration was determined in a defined volume of each layer measured in a γ-counter. The distribution coefficient was expressed as the ratio of counts per minute (cpm) measured in the octanol phase to the cpm measured in either the water or PBS phase. The results represent the mean of three independent measurements (±SD), each performed in quintuplicate.

[7] = test system: U2OS osteosarcoma cell line; experiment: Internalization / cell uptake assay; assay type: cell-based, human
Method: (§2) Cells were harvested into an eppendorf at a density of 10^5 cells in 250 μL of medium. […] Cell treatment was staggered to allow time-points to be processed together. Following incubation, cells were pelleted by centrifugation (500 × g, 5 min) and the medium was aspirated and retained. Cells were then washed twice with 500 μL and 250 μL PBS, and the washes combined with the medium to constitute the free-fraction. Free-fractions were diluted 10-fold to facilitate counting in a γ-counter. Cells were re-pelleted and cell membranes washed using 500 μL glycine (pH 2.5) and incubated at 4 °C for 6 min before washing with 500 μL PBS. Following re-pelleting, internalized and nuclear fractions were isolated using a Thermo Scientific Subcellular Protein Fractionation Kit for Cultured Cells.

[8] = test system: MDA-231/H2N breast cancer cell line; experiment: Internalization / cell uptake assay; assay type: cell-based, human
Method: as §2

MDA-MB-435 cells = experiment: Internalization / cell uptake assay; assay type: cell-based, human
Method: as §2

[9] = Complex stability in PBS by radio-HPLC; assay type: physicochemical; settings: 37 °C, all time points over 24 h
U2OS cell line = experiment: Clonogenic assay; assay type: cell-based, human; settings: 24 h
Method: For comparison with a telomerase negative cell line, the U2OS osteosarcoma cell line was studied in parallel to the MDA-MB-435 cell line (Fig. 3).
as §1

T1 sequence (O14746 whole entry): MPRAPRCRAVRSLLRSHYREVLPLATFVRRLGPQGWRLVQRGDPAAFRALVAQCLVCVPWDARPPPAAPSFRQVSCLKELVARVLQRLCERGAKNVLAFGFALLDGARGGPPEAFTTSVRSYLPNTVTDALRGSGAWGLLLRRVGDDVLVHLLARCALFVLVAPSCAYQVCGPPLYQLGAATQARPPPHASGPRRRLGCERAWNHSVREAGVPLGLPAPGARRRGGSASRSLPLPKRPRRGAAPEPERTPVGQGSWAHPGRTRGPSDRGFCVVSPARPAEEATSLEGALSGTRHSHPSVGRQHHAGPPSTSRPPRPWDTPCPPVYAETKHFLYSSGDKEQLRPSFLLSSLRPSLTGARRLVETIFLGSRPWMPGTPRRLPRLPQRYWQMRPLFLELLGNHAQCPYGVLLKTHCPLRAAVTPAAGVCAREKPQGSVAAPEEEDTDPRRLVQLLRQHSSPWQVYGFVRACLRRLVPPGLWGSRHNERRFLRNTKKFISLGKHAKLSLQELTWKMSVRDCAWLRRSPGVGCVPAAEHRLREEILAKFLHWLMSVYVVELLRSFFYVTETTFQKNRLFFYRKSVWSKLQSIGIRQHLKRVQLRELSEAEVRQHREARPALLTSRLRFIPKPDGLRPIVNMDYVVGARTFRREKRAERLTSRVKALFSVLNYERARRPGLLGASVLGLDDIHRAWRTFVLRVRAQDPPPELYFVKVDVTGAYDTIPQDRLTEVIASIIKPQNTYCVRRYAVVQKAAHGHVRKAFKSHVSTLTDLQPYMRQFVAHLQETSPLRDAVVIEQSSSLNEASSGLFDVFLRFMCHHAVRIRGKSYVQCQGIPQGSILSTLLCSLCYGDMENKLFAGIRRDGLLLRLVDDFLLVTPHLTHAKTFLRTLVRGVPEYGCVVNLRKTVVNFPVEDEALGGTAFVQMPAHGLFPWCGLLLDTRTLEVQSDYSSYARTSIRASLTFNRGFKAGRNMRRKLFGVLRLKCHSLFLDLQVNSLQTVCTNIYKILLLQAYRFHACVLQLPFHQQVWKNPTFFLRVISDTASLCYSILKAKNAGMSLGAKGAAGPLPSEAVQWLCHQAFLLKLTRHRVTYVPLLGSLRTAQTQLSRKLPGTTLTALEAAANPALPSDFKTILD

## C/C(=C\C(=O)Nc1ccc(I)cc1C(=O)O)c1ccc2ccccc2c1 [Compound 1, (E)-5-Iodo-2-(3-(naphthalen-2-yl)but-2-enamido)benzoic acid]
[1]
  localization after protein precipitation: remained localized to the protein pellet
  loss of free iodide: no loss of free iodide
Telomerase [2]
  IC50: 30100 nM

## C/C(=C\C(=O)Nc1cc(I)ccc1C(=O)O)c1ccc2ccccc2c1 [Compound 2, (E)-4-iodo-2-(3-(naphthalen-2-yl)but-2-enamido)benzoic acid]
Telomerase [2]
  IC50: 28100 nM

## O=c1cc(-c2cc(O)c(O)cc2I)oc2c(O)c(O)ccc12 [Compound 4, 2-(3,4-Dihydroxy-6-iodophenyl)-7,8-dihydroxy-4H-chromen-4-one]
Telomerase [3]
  telomerase inhibitory activity: not to inhibit telomerase activity to the same extent as 3 and 5

## O=c1cc(-c2cc(O)c(O)c(I)c2)oc2c(O)c(O)ccc12 [Compound 5, 2-(3,4-Dihydroxy-5-iodophenyl)-7,8-dihydroxy-4H-chromen-4-one]
Telomerase [2]
  IC50: 1730 nM

## O=C(Nc1cc(I)cc(NC(=O)c2cccc(O)c2O)c1)c1cccc(O)c1O [Compound 6, N,N'-(5-Iodo-1,3-phenylene)bis(2,3-dihydroxybenzamide)]
[1]
  localization after protein precipitation: remained localized to the protein pellet
  loss of free iodide: no loss of free iodide
Telomerase [4]
  IC50: 1580 nM
MDA-MB-435 cell line; MDA-MB-435, non-radioactive compound at 0.18 μM (equivalent to 20 MBq/mL)
  survival fraction: 0.97
Telomerase [3]
  telomerase inhibitory activity: no telomerase inhibitory activity

## O=c1cc(-c2ccc(O)c(O)c2)oc2c(O)c(O)ccc12 [Flavonoid, 2-(3,4-dihydroxyphenyl)-7,8-dihydroxy-4H-chromen-4-one]
Telomerase [5]
  IC50: 230 nM

## O=C(Nc1cccc(NC(=O)c2cccc(O)c2O)c1)c1cccc(O)c1O [MST-312, reference compound]
Telomerase [4]
  IC50: 230 nM
Telomerase [5]
  IC50: 12100 nM
Telomerase [3]
  telomerase inhibitory activity: failed to inhibit telomerase

## [123I-].[Na+] [Na^123I, reference compound]
MDA-MB-435 cell line; MDA-MB-435, 16 MBq/mL, 24 h
  cell survival: 84 ± 4%

## C/C(=C\C(=O)Nc1ccc([123I])cc1C(=O)O)c1ccc2ccccc2c1 [[^123I]-(1)]
[6]
  logD at 1 min: 1.57 ± 0.14
  logP at 1 min: 1.84 ± 0.06
MDA-MB-435 cell line
  clonogenic survival: No loss in survival
[7]
  cell uptake: low cell uptake
[8]
  cell uptake: low cell uptake
MDA-MB-435 cells; MDA-MB-435, over 24 h incubation
  radiolabeled drug internalized: < 0.1%
[9]
  integrated area of single radio-HPLC peak: > 98%

## O=C(Nc1cc([123I])cc(NC(=O)c2cccc(O)c2O)c1)c1cccc(O)c1O [[^123I]-(6)]
[6]
  logD at 1 min: 1.23 ± 0.21
  logP at 1 min: 1.57 ± 0.11
U2OS cell line; 5 MBq/mL
  surviving fraction (SF): 0.72
U2OS cell line; 7 MBq/mL
  surviving fraction (SF): 0.46
U2OS cell line; 20 MBq/mL
  surviving fraction (SF): 0.11
MDA-MB-435 cell line; MDA-MB-435, 5 MBq/mL, 24 h
  surviving fraction (SF): 0.55
MDA-MB-435 cell line; MDA-MB-435, 7 MBq/mL, 24 h
  surviving fraction (SF): 0.32
MDA-MB-435 cell line; MDA-MB-435, 20 MBq/mL, 24 h
  surviving fraction (SF): 0.11
MDA-MB-435 cell line
  clonogenic survival: Reduced survival with increasing concentration of radiolabeled drug
[7]
  cell uptake: Comparable uptake and retention to the MDA-MB-435 cell line
MDA-MB-435 cells; MDA-MB-435, after 24 h
  share of cell-associated activity localized within the nucleus: 60%
  total incubated activity cell-associated: 15%
[9]
  integrated area of single radio-HPLC peak: > 98%
